Results published in patent US20240217936A1, “5-BENZY[…] AND PREPARATION METHOD THEREFOR AND USE THEREOF” (WEST CHINA HOSPITAL, SICHUAN UNIVERSITY, priority 2021, published 2024).
Where a name gives a salt, the structure may show the parent alone.

Legend:
Male SD rats [1] = assay: Sedative and hypnotic effects after oral administration (gavage, righting reflex); assay type: in vivo, rat; design: key to Onset time / Duration: —: Disappearance of righting reflex was not observed; settings: for Onset time / Duration: gavage, 0.16 μmoL/kg; for Onset time: disappearance of righting reflex; for Duration: until recovery of righting reflex
Experimental: Each test drug was administered by gavage, at a dosage of 0.16 μmoL/kg for each drug. After gavage, the disappearance of the righting reflex was used as a sign of the hypnotic effect induced by the drug, and the recovery of the righting reflex was used as a sign of drug failure. The onset time and duration of the drug were observed.

Male SD rats [2] = assay: Hypnotic effect after tail vein injection (loss of righting reflex); assay type: in vivo, rat; settings: for ED50: Rattus norvegicus, 50% of the dose for the disappearance of righting reflex in rats, tail vein injection; for Onset time: tail vein injection of 2× ED50, loss of righting reflex; for Onset time / Duration: rats; for Duration: tail vein injection of 2× ED50, until recovery of righting reflex
Experimental: Male SD rats, weighing 250-300 g, were randomly divided into groups, with 10 rats in each group. […] The onset times and the duration of hypnosis were recorded.

Male SD rats [3] = assay: Blood pressure change after tail vein injection (mean arterial pressure); settings: dosage 2× ED50, injection within 15 seconds, 60 min recording, rats under isoflurane
Experimental: Male SD rats weighing 250-300 g were randomly divided into groups, with 10 rats in each group. General anesthesia was maintained by inhaling isoflurane. By intubating via femoral artery, blood pressure was monitored using the BL-420N biological signal collection and analysis system. minutes after blood pressure stabilization, the baseline mean arterial pressure (MAP0) was measured. Subsequently, the physiological saline solution of each test drug was injected via the tail vein (the dosage of each drug was the same as that in Experiment example 2, with a unified injection […] volume of 1 mL). […] All prodrug molecules were injected within 15 seconds. After injection of each drug, the change in blood pressure was continuously recorded for 60 min. […] The difference MAPΔ+ between the baseline mean arterial pressure (MAP0) and the highest mean arterial pressure (MAPmax) during the 60 min measurement time was calculated; the difference MAPΔ− between the baseline mean arterial pressure (MAP0) and the lowest mean arterial pressure (MAPmin) during the 60 min measurement time was also obtained; both of the difference values were used to calculate the maximum increase rate of mean arterial pressure +Δ%=MAPΔ+/MAP0*100% and the maximum decrease rate of mean arterial pressure −Δ%=MAPΔ−/MAP0*100%, respectively. The maximum increase rate of mean arterial pressure +Δ% and the maximum decrease rate −Δ% reflect the degree of blood pressure change that the body experienced after administration. The larger the value, the greater the blood pressure change that the body experienced.

[4] = Degradation of prodrug in rat plasma (release of dexmedetomidine, HPLC); assay type: in vitro ADME; settings: 37° C.
Experimental: The test prodrug was formulated as a 1 mg/mL of physiological saline solution, and then 100 μL of the prodrug solution was added to 900 μL of rat plasma. The test solution was vortexed for 30 s before incubation at 37° C. 50 μL of drug-containing plasma was collected at 0.5 min, 1 min, 2 min, 3 min, 5 min, 10 min, 15 min, 20 min, 30 min, and 60 min, respectively, to which was immediately added 150 μL of acetonitrile to terminate the enzymatic reaction, followed by adding the solution of internal standard telmisartan in methanol (30 μL, 20 μg/mL). Then, the resultant solution was centrifuged at 20000 rpm and 4° C. for 10 min. 100 μL of the supernatant was injected for detection by HPLC, and the concentration of dexmedetomidine was determined by an internal standard method. The degradation rate of the prodrug was calculated based on the concentration of dexmedetomidine. The chromatographic conditions are: Swell XDB C18 column (150 mm×4.6 mm, 5 μm); column temperature 30° C.; using gradient elution (see Table 1), mobile phase A: methanol, mobile phase B: 0.1% trifluoroacetic acid in water, and mobile phase C: acetonitrile; detection wavelength: 220 nm; flow rate: 1.0 mL/min; injection volume: 30 μL; retention time: 4.7 minutes for dexmedetomidine and 6.7 minutes for internal standard telmisartan. The linear range of dexmedetomidine: 2.5-100 μg/mL. Instruments: Waters 2695 high-performance liquid chromatograph, Waters 2996 photodiode array detector.

Row | SMILES | hypnotic effect by oral administration (Male SD rats [1]; equimolar doses, oral) | Onset time (Male SD rats [1]) | Duration (Male SD rats [1]) | ED50 (Male SD rats [2]) [mg/kg] | Onset time (Male SD rats [2]) [min] | Duration (Male SD rats [2]) [min] | +Δ % (The maximum increase rate of blood pressure) (Male SD rats [3]) | −Δ % (The maximum decrease rate of blood pressure) (Male SD rats [3]) [%] | Degradation rate of prodrug % ([4]; 0.5 min) [%] | Degradation rate of prodrug % ([4]; 1 min) [%] | Degradation rate of prodrug % ([4]; 2 min) [%] | Degradation rate of prodrug % ([4]; 3 min) [%] | Degradation rate of prodrug % ([4]; 5 min) [%] | Degradation rate of prodrug % ([4]; 10 min) [%] | Degradation rate of prodrug % ([4]; 15 min) [%] | Degradation rate of prodrug % ([4]; 20 min) [%] | Degradation rate of prodrug % ([4]; 30 min) [%] | Degradation rate of prodrug % ([4]; 60 min) [%]
1 | Cc1cccc([C@H](C)c2c[nH]cn2)c1C.Cl [Dexmedetomidine hydrochloride, reference compound] | could not produce a hypnotic effect | — | — | 0.018 | 1.5 ± 0.5 | 53 ± 11 |  |  |  |  |  |  |  |  |  |  |  | 
2 | Cc1cccc([C@H](C)c2cn(COP(=O)(OC(C)(C)C)OC(C)(C)C)cn2)c1C [Compound 12, (S)-(4-(1-(2,3-dimethylphenyl)ethyl)-1H-imidazo-1-yl)methyl di-tert-butyl phosphate] |  | 16 ± 7 min | 11 ± 4 min |  |  |  |  |  |  |  |  |  |  |  |  |  |  | 
3 | CC(=O)OC(C)n1cnc([C@@H](C)c2cccc(C)c2C)c1 (stereo partly drawn) [Compound 17] |  | 23 ± 5 min | 9 ± 4 min |  |  |  |  |  |  |  |  |  |  |  |  |  |  | 
4 | Cc1cccc([C@H](C)c2cn(C(=O)OC(C)C)cn2)c1C [Compound 5-HCl] |  |  |  | 0.037 | 3.7 ± 1.3 | 61 ± 15 | *18 ± 6% | 35 ± 5 | 36 | 47 | 52 | 67 | 89 | 98 | 100 |  |  | 
5 | CCCC(=O)OCn1cnc([C@@H](C)c2cccc(C)c2C)c1 [Compound 8-HCl] |  |  |  | 0.024 | 4.1 ± 2.4 | 31 ± 13 | *18 ± 8% | 31 ± 7 | 76 | 89 | 97 | 100 |  |  |  |  |  | 
6 | CCOC(=O)OCn1cnc([C@@H](C)c2cccc(C)c2C)c1 [Compound 6-HCl] |  |  |  | 0.03 | 2.1 ± 1.1 | 45 ± 8 | *23 ± 9% | 36 ± 6 | 21 | 47 | 76 | 89 | 96 | 100 |  |  |  | 
7 | Cc1cccc([C@H](C)c2cn(COC(=O)OC(C)C)cn2)c1C [Compound 7] |  | 9 ± 4 min | 22 ± 8 min |  |  |  |  |  |  |  |  |  |  |  |  |  |  | 
8 | COC(=O)COC(=O)OCn1cnc([C@@H](C)c2cccc(C)c2C)c1 [Compound 23] |  | 28 ± 5 min | 8 ± 2 min |  |  |  |  |  |  |  |  |  |  |  |  |  |  | 
9 | CC(=O)OC(C)n1cnc([C@@H](C)c2cccc(C)c2C)c1 (stereo partly drawn) [Compound 17-HCl] |  |  |  | 0.029 | 1.8 ± 0.7 | 42 ± 12 | *15 ± 4% | 35 ± 6 | 12 | 16 | 19 | 22 | 29 | 39 | 48 | 53 | 58 | 67
10 | Cc1cccc([C@H](C)c2cn(COC(=O)C3CC3)cn2)c1C [Compound 15-HCl] |  |  |  | 0.03 | 3.5 ± 1.2 | 43 ± 9 | *21 ± 5% | 36 ± 6 | 18 | 41 | 54 | 63 | 87 | 94 | 100 |  |  | 
11 | CCCOC(=O)n1cnc([C@@H](C)c2cccc(C)c2C)c1 [Compound 11-HCl] |  |  |  | 0.026 | 2.6 ± 0.3 | 47 ± 8 | *25 ± 7% | 41 ± 8 | 26 | 57 | 74 | 75 | 82 | 88 | 95 | 100 |  | 
12 | Cc1cccc([C@H](C)c2cn(COC(=O)OC3CCC3)cn2)c1C [Compound 14-HCl] |  |  |  | 0.031 | 3.9 ± 2.1 | 51 ± 7 | 31 ± 6% | 36 ± 6 | 53 | 80 | 85 | 98 | 100 |  |  |  |  | 
13 | CCC(=O)OCn1cnc([C@@H](C)c2cccc(C)c2C)c1 [Compound 10] |  | 13 ± 6 min | 15 ± 7 min |  |  |  |  |  |  |  |  |  |  |  |  |  |  | 
14 | CCOC(=O)COC(=O)OCn1cnc([C@@H](C)c2cccc(C)c2C)c1 [Compound 24-HCl] |  |  |  | 0.03 | 1.3 ± 0.4 | 47 ± 7 | *27 ± 12% |  | 18 | 21 | 24 | 27 | 31 | 33 | 36 | 37 | 38 | 41
15 | COC(=O)OCn1cnc([C@@H](C)c2cccc(C)c2C)c1 [Compound 13] |  | 11 ± 5 min | 21 ± 9 min |  |  |  |  |  |  |  |  |  |  |  |  |  |  | 
